Results published in paper PMC10222454, “Characterization of the Molecular Diversity and Degranulation Activity of Mastoparan Family Peptides from Wasp Venoms” (Toxins, 2023).
Like-named read-outs stand apart in the source and are kept apart here. Ends that are not written are not given here.

Columns and labels:
[1] = system: RBL-2H3 cells; type: cell-based, rat; conditions: for degranulation activity of mutant compared with Protopolybia-MPIII, in words: mutants of Protopolybia-MPIII, Table 3
Experimental: (§1) RBL-2H3 cells (rat mucosal-type mast cell line) and P815 cells (mouse mast cell tumor cell line) were obtained from the BeNa Culture Collection (Xinyang, China). RBL-2H3 cells were cultured in DMEM (Gibco, Wuhan, China) supplemented with 15% FBS (Gibco), and P815 cells were maintained in RPMI 1640 basic medium supplemented with 10% FBS and antibiotics (100 mg/L streptomycin and 1 × 10^5 U/L penicillin) in a humidified atmosphere (5% CO2, 37 °C).
(§2) Degranulation was analyzed by measuring the release of the granule marker N-acetyl-D-glucosaminidase (β-hexosaminidase), which colocalizes with histamine, as described in [24]. For this, 2 × 10^5 P815 cells/mL or 1.5 × 10^5 RBL-2H3 cells/mL were seeded in 96-well cell culture plates. Twelve hours later, the cells were incubated with various concentrations of mastoparans dissolved in 100 μL HEPES buffer (137 mM NaCl, 2.7 mM KCl, 1 mM MgCl2, 1.8 mM CaCl2, 20 mM HEPES, 1 mg/mL BSA, and 1 mg/mL glucose, pH 7.4) for 15 min at 37 °C and 5% CO2. Then, the reactions were quenched by the addition of 0.15 mL of ice-cold HEPES buffer. After centrifugation, the supernatants were sampled for the β-hexosaminidase assay. Briefly, 50 μL samples of the cell culture supernatants and 50 μL of the substrate, 5 mM p-nitrophenyl-N-acetyl-b-D-glucosaminide (Sigma) in 0.2 M citrate, pH 4.5, were incubated in 96-well plates at 37 °C and 5% CO2 for 16–18 h to yield the chromophore p-nitrophenol, and the reactions were stopped by the addition of 100 μL of 0.2 M glycine solution, pH 10.7. The absorbance of the colored product was assessed at 405 nm using a microtiter plate reader. The values for β-hexosaminidase released in the medium are expressed as the percentage of total β-hexosaminidase, which was measured in the cells after lysis in 0.1% Triton X-100. The experiment was repeated three times, and the results represent the mean and standard deviation (SD) of quadruplicate tests. The percent degranulation was calculated according to the following equation:Degranulation Rate (%) = 100% × (Amastoparans − AHEPES)/(ATriton X-100 − AHEPES).
Statistical analysis was performed with GraphPad Prism software. The curve of mast cell degranulation induced by wasp mastoparans was generated in SigmaPlot 12.5 software, and the EC50 was calculated according to the following equation (Four-Parameter Logistic Curve): y = min + (max − min)/(1 + (x/EC50) […] Hillslope).

[2] = system: P815 cells; test: Mast cell degranulation activity (β-hexosaminidase release) in P815 cells; type: cell-based, mouse
Experimental: as §1, §2

[3] = RBL-2H3 cells, 80 μg/mL peptide, 15 min at 37 °C, % of total β-hexosaminidase (0.1% Triton X-100 lysis)
[4] = P815 cells, 80 μg/mL peptide, 15 min at 37 °C, % of total β-hexosaminidase (0.1% Triton X-100 lysis)

## INMKAVAAVAKKPL-NH2 [Mastoparan-VB2]
[1]; RBL-2H3 cells
  degranulation of RBL-2H3 / mast cells, in words: neither of them could induce the degranulation
[1]; [3]
  Degranulation at 80 μg/mL, RBL-2H3: 0%
[1]; pH 7.4
  EC50: > 200 µM
  EC50 (μg/mL), RBL-2H3: >300 µg/mL
[2]; [4]
  Degranulation at 80 μg/mL, P815: <20%

## INLKAIAALAKKLL-NH2 [Mastoparan-M]
[1]
  Degranulation at 80 μg/mL, RBL-2H3: 10%
[1]; pH 7.4
  EC50: > 200 µM
  EC50 (μg/mL), RBL-2H3: >300 µg/mL
[2]
  Degranulation at 80 μg/mL, P815: <20%

## INWLKLGKAVIAAL-NH2 [Protopolybia-MP III-3]
[1]
  EC50: 15.3 ± 3.53 µM

## INLKALAALVKKVL-NH2 [Mastoparan-II]
[1]; pH 7.4
  EC50: 58.7 ± 24.8 µM

## INWLKLGKAVSDAL-NH2 [Protopolybia-MP III-2]
[1]
  EC50: 193 ± 28.8 µM

## INWLKLGKKVSAAL-NH2 [Protopolybia-MP III-14]
[1]
  EC50: > 325 µM
  EC50 (μg/mL), Protopolybia-MPIII and mutations: >500 µg/mL
  degranulation activity of mutant compared with Protopolybia-MPIII, in words: almost lost

## INWLKLGKQILGAL-NH2 [Pm-R3]
[1]; pH 7.4
  EC50: 7.6 ± 0.76 µM

## INWLKLGKAVSAIL-NH2 [Protopolybia-MP III-11]
[1]
  EC50: > 325 µM
  degranulation activity of mutant compared with Protopolybia-MPIII, in words: significantly decreased

## FDVMGIIKKIASAL-NH2 [EMP-EF]
[1]; pH 7.4
  EC50: 25.1 ± 1.59 µM

## INWKKIAEIGKQVLSAL-NH2 [Dominulin B]
[1]; [3]
  Degranulation at 80 μg/mL, RBL-2H3: 24%
[1]; pH 7.4
  EC50 (μg/mL), RBL-2H3: 148.45 ± 51.31 µg/mL
[2]; [4]
  Degranulation at 80 μg/mL, P815: <20%

## LNLKGLIKKVASLLN-OH [Eumenitin-R]
[1]; RBL-2H3 cells
  degranulation of RBL-2H3 / mast cells, in words: hardly induced mast cell degranulation
[1]; [3]
  Degranulation at 80 μg/mL, RBL-2H3: 14%
[1]; pH 7.4
  EC50 (μg/mL), RBL-2H3: >300 µg/mL
[2]; [4]
  Degranulation at 80 μg/mL, P815: <20%

## INWLKLGKAVSAAL-NH2 [Protopolybia-MP III-8]
[1]
  EC50: 140 ± 7.06 µM

## INLFGFAALVKKFL-NH2 [Mastoparan-T4]
[1]; pH 7.4
  EC50: 18.2 ± 3.52 µM

## INWLKLGKAVSDIL-NH2 [Protopolybia-MP III-9]
[1]
  EC50: 49.6 ± 1.73 µM

## INWAKLGKLALQAL-NH2 [Ropalidia-MP]
[1]; pH 7.4
  EC50: 33 ± 5.79 µM

## INWKKIASIGKEVLKAL-NH2 [PMM2]
[1]; pH 7.4
  EC50: 36.6 ± 4.61 µM

## INWLKLGKKILGAI-NH2 [Pm-R1]
[1]; pH 7.4
  EC50: 22.9 ± 4.77 µM

## INWLKLGKKVIAAL-NH2 [Protopolybia-MP III-6]
[1]
  EC50: 69.1 ± 12.3 µM

## LNLKGIFKKVASLLT-OH [Eumenitin]
[1]; RBL-2H3 cells
  degranulation of RBL-2H3 / mast cells, in words: hardly induced mast cell degranulation
[1]; [3]
  Degranulation at 80 μg/mL, RBL-2H3: 8%
[1]; pH 7.4
  EC50 (μg/mL), RBL-2H3: >300 µg/mL
[2]; [4]
  Degranulation at 80 μg/mL, P815: <20%

## IDWLKLRVISVIDL-NH2 [Polybia-MPIV]
[1]; [3]
  Degranulation at 80 μg/mL, RBL-2H3: 6%
[1]; pH 7.4
  EC50: > 200 µM
  EC50 (μg/mL), RBL-2H3: >300 µg/mL
[2]; [4]
  Degranulation at 80 μg/mL, P815: <20%

## INMKASAAVAKKLL-NH2 [Mastoparan-VB1]
[1]; RBL-2H3 cells
  degranulation of RBL-2H3 / mast cells, in words: neither of them could induce the degranulation
[1]; [3]
  Degranulation at 80 μg/mL, RBL-2H3: −1%
[1]; pH 7.4
  EC50: > 200 µM
  EC50 (μg/mL), RBL-2H3: >300 µg/mL
[2]; [4]
  Degranulation at 80 μg/mL, P815: <20%

## LNLKGLFKKVASLLT-OH [Eumenitin-F]
[1]; RBL-2H3 cells
  degranulation of RBL-2H3 / mast cells, in words: hardly induced mast cell degranulation
[1]; [3]
  Degranulation at 80 μg/mL, RBL-2H3: 2%
[1]; pH 7.4
  EC50 (μg/mL), RBL-2H3: >300 µg/mL
[2]; [4]
  Degranulation at 80 μg/mL, P815: <20%

## INWKAILQRIKKML-NH2 [Agelaia-MPII]
[1]; pH 7.4
  EC50: 34.7 ± 9.03 µM

## INWKKIAEVGGKILSSL-NH2 [Dominulin A]
[1]; [3]
  Degranulation at 80 μg/mL, RBL-2H3: 11%
[1]; pH 7.4
  EC50: > 200 µM
  EC50 (μg/mL), RBL-2H3: >300 µg/mL
[2]; [4]
  Degranulation at 80 μg/mL, P815: <20%

## IKWKAILDAVKKVL-NH2 [Mastoparan-A]
[1]; pH 7.4
  EC50: 28.4 ± 1.55 µM

## INWKALLDAAKKVL-NH2 [Protonectarina-MP]
[1]; pH 7.4
  EC50: 46.4 ± 3.1 µM

## FDLLGLVKKVASAL-NH2 [EpVP2a]
[1]; pH 7.4
  EC50: 31.6 ± 4.31 µM

## KDLHTVVSAILQAL-NH2 [OdVP3]
[1]; [3]
  Degranulation at 80 μg/mL, RBL-2H3: 5%
[1]; pH 7.4
  EC50: > 200 µM
  EC50 (μg/mL), RBL-2H3: >300 µg/mL
[2]; [4]
  Degranulation at 80 μg/mL, P815: <20%

## FDLLGLVKSVVSAL-NH2 [EpVP2b]
[1]; pH 7.4
  EC50: 25.9 ± 2.88 µM

## INWKGIAAMAKKLL-NH2 [Mastoparan-X(V)]
[1]; pH 7.4
  EC50: 78.8 ± 15 µM

## INWKKIFQKVKNLV-NH2 [PDD-A]
[1]; pH 7.4
  EC50: 65.8 ± 19.5 µM

## INWLKLGKMVIDAL-NH2 [Polybia-MPII]
[1]; pH 7.4
  EC50: 6.79 ± 0.4 µM

## INLKVFAALVKKFL-NH2 [Mastoparan-T1]
[1]; pH 7.4
  EC50: 32.1 ± 10 µM
